In patent publication US7230143B2, “Chromatographic method for the analysis of both in process and finished sevoflurane” (Halocarbon Products Corporation, priority 2004, dated 2007):

Assay: Partition of sevoflurane and HFIP in solvent/HF system
Format: physicochemical
Conditions: equal volumes, 25 C, fraction of original compound found in the solvent, by gas chromatography; for Partition Coefficients of Sevoflurane and HFIP in solvent/HF system: 1,2,3-trichloropropane: solvent 1,2,3-trichloropropane / HF; for Partition Coefficients of Sevoflurane and HFIP in solvent/HF system: HC-0.8 oil: solvent HC-0.8 oil (mixture of tetrachlorobutanes) / HF; for Partition Coefficients of Sevoflurane and HFIP in solvent/HF system: Krytox: solvent Krytox (1:1 mixture of DuPont Krytox GLP 100 and K6) / HF
Experimental: The partitions of sevoflurane and of HFIP in solvent/HF system were measured by mixing a small amount of either sevoflurane or HFIP with a two-layer mixture of equal volumes of a particular solvent and HF at 25 C. After enough mixing to reach equilibrium, the fraction of original compound found in the solvent was determined by gas chromatography and quantified using standards.

| Structure (SMILES) | Partition Coefficients of Sevoflurane and HFIP in solvent/HF system: 1,2,3-trichloropropane | Partition Coefficients of Sevoflurane and HFIP in solvent/HF system: HC-0.8 oil | Partition Coefficients of Sevoflurane and HFIP in solvent/HF system: Krytox | Partition Coefficients of Sevoflurane and HFIP in solvent/HF system: Isooctane | Partition Coefficients of Sevoflurane and HFIP in solvent/HF system: Perfluoromethyldecalin |
| --- | --- | --- | --- | --- | --- |
| FCOC(C(F)(F)F)C(F)(F)F [Sevoflurane, fluoromethyl 2,2,2-trifluoro-1-(trifluoromethyl)ethyl ether] | 0.45 | 1.00 | 0.32 | 0.30 | 0.22 |
| OC(C(F)(F)F)C(F)(F)F [HFIP, 1,1,1,3,3,3-hexafluoro-2-propanol] | <0.005 | 0.01 | <0.005 | <0.005 | <0.005 |
